Results published in US9155752B2, “Liver function-improving agent” (UENO FINE CHEMICALS INDUSTRY, LTD., priority 2012, dated 2015).

Columns and labels:
[1] = tested on: C57BL/6 male mice fed high fat diet; assay: Fat vacuoles in hepatocytes, HE-stained liver tissue (Test Example 2); format: in vivo; conditions: for Fat vacuole area, Significant difference: 1% level; for Fat vacuole area (Mean ± Standard error): 8 weeks
Procedure: The following test was carried out in the same manner as in Test Example 1 for (1) test animal, (2) diet, and (3) preparation of sample. The diet and the sample water (test substance aqueous solution or distilled water) listed in Table 1 were administered to mice in each group and the animals were fed for 8 weeks. After 8-week test feeding, pentobarbital of 100 mg/kg of body weight was intraperitoneally administered to mice, and the mice were euthanized, and then liver was excised. The liver tissue excised from mice was stained with hematoxylin-eosin (HE) and a specimen observation under a microscope was carried out. Moreover, the results of microscopic observation were analyzed by the following method and a significant difference was evaluated by the t-test. […] This photographing was performed for four mice per group to obtain 16 microscopic images in total per group. At first, stained parts such as cytoplasm and nucleus in hepatocytes were selected by the image analysis. Then fat vacuole parts were selected by color inversion and the number of pixels for the selected fat vacuole parts was considered as a fat vacuole area. In the analysis, Dynamic Cell Count software accompanying fluorescence microscope BZ-9000 was used.

NASH mice = assay: Oil Red staining of liver, fat accumulation area % (Test Example 3); format: in vivo; conditions: for Fat accumulation area %, Significant difference: Student-t, 5% level
From the text: A solid diet CE-2 (lipid 4.6% by weight, manufactured by CLEA Japan, Inc.) was used as a normal diet. A solid diet, High Fat Diet 32 (lipid 32.0% by weight, sucrose 6.75% by weight, manufactured by CLEA Japan, Inc.), was used as a sucrose-containing high fat diet. As a maltitol-containing high-fat diet, a special diet (lipid 32.0% by weight, maltitol 6.08% by weight; manufactured by CLEA Japan, Inc.) obtained by replacing the total amount (6.75% by weight) of sucrose in a solid diet, High Fat Diet 32, with powdered maltitol (Whole Crystalline Maltitol Ueno 60M (purity of maltitol: 90%), manufactured by Ueno Fine Chemicals Industry Ltd.) was used. Sodium hypochlorite (PURELOX-S, manufactured by OYALOX Co., Ltd.) was added to pure water prepared by Elix-UV pure water producing apparatus, to a final concentration of 0.00009%, so that pure water for use in the test was obtained. An aqueous maltitol solution was prepared by dissolving powdered maltitol (Whole Crystalline Maltitol Ueno 60M (purity of maltitol: 90%), manufactured by Ueno Fine Chemicals Industry Ltd.) in pure water to a concentration of 1.8% (weight/volume). The purity of maltitol in the aqueous maltitol solution was 1.62%. Twenty-one female SPF mice (C57BL/6J, produced by CLEA Japan, Inc.) on day 14 of pregnancy were purchased and acclimation was performed. All animals were allowed to make a natural birth and a born male was used to produce a model. In addition, the weaning was at 4 weeks after birth. Streptozotocin (Sigma-Aldrich Japan K.K.) was adjusted to a concentration of 10 mg/mL with a physiological saline solution (manufactured by Otsuka Pharmaceutical Factory, Inc.) and the solution was subcutaneously administered once to the back of 2-day-old male mice at a dose of 20 μL/mouse (200 μg/mouse). Afterwards, the mother animal took care of the baby until weaning. The weaning was on day 28±2 after birth. After the weaning, a normal diet was supplied ad libitum to animals receiving no streptozotocin (normal mice (group S1 and group 1)), and a sucrose-containing high fat diet was supplied ad libitum to animals receiving streptozotocin (NASH mice (group S2, group 2, group 3, and group 4). A normal diet was supplied ad libitum to normal mice (group 1). With respect to NASH mice, a sucrose-containing high fat diet was supplied ad libitum to the sucrose group (group 2), and a maltitol-containing high fat diet was supplied ad libitum to the maltitol-low dose group (group 3) and the maltitol-high dose group (group 4). An aqueous maltitol solution was supplied ad libitum only to the maltitol-high dose group (group 4) of 5 to 8 weeks of age, and pure water was supplied ad libitum to the groups other than group 4 of 5 to 8 weeks of age. Six male animals per group were assigned to groups S1 and S2, reared up to 5 weeks of age, and then necropsied. Eight male animals per group were assigned to groups 1, 2, 3 and 4, reared up to 8 weeks of age, and then necropsied. At scheduled necropsy of the animals of 5 or 8 weeks of age, all individuals were anesthetized with diethyl ether (manufactured by Sigma-Aldrich Japan K.K.) and a needle through which heparin sodium (Novo Heparin Injection 1000, manufactured by Mochida Pharmaceutical Co., Ltd.) had been passed was punctured to the heart to aspirate the whole blood, leading to euthanasia, followed by harvest of the organ. With respect to animals of 5 or 8 weeks of age at scheduled necropsy, the left outer lobe of the liver was immersed in a neutral formalin solution (manufactured by Wako Pure Chemical Industries, Ltd.) for fixation at room temperature for 24 hours, subjected to sucrose substitution, embedded in a tray for cryosection (CRYO DISH manufactured by Shoei Works Co., Ltd.) filled with O.C.T. compound (manufactured by Sakura Finetek Japan Co., Ltd.), immediately frozen with liquid nitrogen, and preserved at −80° C. for oil red staining. […]

[2] = Group 3: high fat diet + 2.5% aqueous sucrose solution
[3] = Group 4: high fat diet + 2.25% aqueous maltitol solution
[4] = Group 5: high fat diet + 4.5% aqueous maltitol solution

Row | SMILES | Fat vacuole area, Significant difference ([1]; Group 3 (2.5% sucrose solution) relative to group 2 (high fat diet + distilled water)) | Fat vacuoles in microscopic observation [1, 2] | Fat vacuole area (Mean ± Standard error) [1, 2] | Fat accumulation area %, Significant difference (NASH mice; Group 2 (sucrose) at 8 weeks vs group S2 at 5 weeks of age) | Fat accumulation area % (Oil Red staining), mean ± standard deviation (NASH mice; Group 2, sucrose group: HFD32 (sucrose 6.75%) + pure water, eight weeks of age) | Fat vacuole area, Significant difference ([1]; Group 4 (2.25% maltitol solution) relative to group 2 (high fat diet + distilled water)) | Fat vacuoles in microscopic observation [1, 3] | Fat vacuole area (Mean ± Standard error) [1, 3] | Fat vacuole area, Significant difference ([1]; Group 5 (4.5% maltitol solution) relative to group 2 (high fat diet + distilled water)) | Fat vacuoles in microscopic observation [1, 4] | Fat vacuole area (Mean ± Standard error) [1, 4] | Fat accumulation area %, Significant difference (NASH mice; Group 3 (low-dose maltitol) at 8 weeks vs group S2 at 5 weeks of age) | Fat accumulation area % (Oil Red staining), mean ± standard deviation (NASH mice; Group 3, low-dose maltitol: HFD32-M (maltitol 6.08%) + pure water from 5 to 8 weeks of age) | Fat accumulation area %, Significant difference (NASH mice; Group 4 (high-dose maltitol) at 8 weeks vs group S2 at 5 weeks of age) | Fat accumulation area % (Oil Red staining), mean ± standard deviation (NASH mice; Group 4, high-dose maltitol: HFD32-M (maltitol 6.08%) + aqueous maltitol solution 1.62% from 5 to 8 weeks of age)
1 | OC[C@H]1O[C@@](CO)(O[C@H]2O[C@H](CO)[C@@H](O)[C@H](O)[C@H]2O)[C@@H](O)[C@@H]1O [sucrose, reference compound] | No | reduction of the fat vacuoles is limited | 306930 ± 28549 pixel | a significant difference was not observed and No | 34.7 ± 8.4% | – | – | – | – | – | – | – | – | – | –
2 | OC[C@@H](O)[C@@H](O[C@H]1O[C@H](CO)[C@@H](O)[C@H](O)[C@H]1O)[C@H](O)[C@@H](O)CO [maltitol] | – | – | – | – | – | significantly smaller and Yes | few fat vacuoles were observed | 256145 ± 29037 pixel | significantly smaller and Yes | few fat vacuoles were observed | 264982 ± 16387 pixel | significantly low and Yes | 32.7 ± 7.6% | significantly low and Yes | 28.6 ± 5.5%
